Reference: patent US8211483B2, “Composition comprising starch or dietary fiber from gramineae plant for prevention and treatment of ischemic diseases and degenerative brain disease” (Hypoxi Co., Ltd., priority 2007, dated 2012)

Tests used:
SH-SY5Y cells = assay: MTT assay, beta-amyloid-induced cytotoxicity in SH-SY5Y cells; type: cell-based, human; conditions: 15 microM beta-amyloid (alone 60.4%), p<0.05, FIG. 3e; for viability at 250 µg/mL: Homo sapiens, 250 microgram/ml, read-out: cell viability
Procedure: To identify the neuroprotective effect of inventive crude extract, starch and total dietary fiber on the cytotoxicity induced by beta-amyloid, which is regarded as one of the main causes of Alzheimer's disease, the following MTT assay was performed by the procedure disclosed in the literature (Hoffman R. M., Cell Biology (Celis J E (Ed.), Vol. 1, pp 369-370, Academic Press, New York, 1994) with minor modification.
SH-SY5Y cells (human neuroblastoma cell line, ATCC CRL-2266, 4×10^4 cells/300 microliter/well) were seeded onto 48 well plates and incubated in Dulbecco's modified Eagle Medium/F12 90% medium (Invitrogen, USA) supplemented with penicillin G sodium (100 Units/L, Invitrogen, USA), streptomycin sulfate (100 mg/L, Invitrogen, USA) and 10% (w/v) fetal bovine serum (Invitrogen, USA); incubated at 37° C. in 5% CO2-95% air incubator for 48 hours. After changing the media, the cells were treated with beta-amyloid to the final concentrations of 0, 2.5, 7.5 and 25 microM for 24 hours in the absence (designated as Aβ25-35 alone group hereinafter) or presence with inventive starch isolated from Triticum aestivum L. (final concentration: 125 microgram/ml; designated as A25-35+SW group hereinafter) or soluble starch (final concentration: 125 microgram/ml; designated as A25-35+SS group hereinafter) which were made from 50 microgram/ml stock solutions in DMSO (See FIGS. 3a & 3b). After incubation, cells were treated with MTT solution (final concentration of 1 mg/ml) for 2 hours. The dark blue formazan in viable cells was dissolved in DMSO and absorbance at 540 nm was measured by a microplate reader (FLUOstar OPTIMA, BMG LABTECH, GERMANY).
Based on the above-mentioned result, to further examine the protective effects of the crude extract of Triticum aestivum L. or starches isolated from Gramnieae plants against the beta-amyloid-induced cytotoxicity, the concentration of beta-amyloid was fixed to 25 microM. The crude extract of Triticum aestivum L. (HY6228, shown as HY in FIG. 3c; 250 microgram/ml) and starches isolated from Gramnieae plants (SS, SC, SR and SW; 125 microgram/ml) were added thereto to incubation (See FIG. 3c). We also have examined the cell viability improving effect of total dietary fiber (TDF; 500, 1000 microgram/ml) in the presence of 10 microM of beta-amyloid (See FIG. 3d).
In addition, arabinoxylan (AX; 500 microgram/ml), arabinose (Ara; 250 microgram/ml), xylose (Xyl; 250 microgram/ml) and beta-glucan (b-glu; 20 microgram/ml) were added to the media in the presence of 15 microM beta-amyloid (See FIG. 3e).

[1] = tested on: myocardial infarction-induced rat model; assay: Myocardial infarction-induced rat model (LAD ischemia-reperfusion), oral administration; type: in vivo; conditions: for size of infarcted area reduced by: 10 mg/kg/day oral, vs control 50.6%, p<0.05, FIG. 5c; for IA (% AAR): 10 mg/kg/day with food from three days before ischemia, control 50.6%, FIG. 5c
Procedure: The therapeutic efficacy of inventive starch and total dietary fiber on myocardial infarction was measured in myocardial infarction-induced rat model, using experiment rats prepared in Reference Example 1, in accordance with the procedure disclosed in the literature (Haisong J et al., Circulation, 97, pp 892-899, 1998), with minor modification.
SD rats prepared in Reference Example 1 were anesthetized with 10 mg/kg ketamine (Yuhan Corp., KOREA) and 5 mg/kg xylazine (Sigma, USA) and intubated endotracheally. The rats were connected to a respirator through a tracheotomy, and the heart was rapidly exteriorized through a left thoracotomy and pericardial incision. The upper region of left coronary artery (LAD) was ligated by passing a 5-0 prolene thread under LAD and tightening polyethylene tubing 50 (PE 50), resulting in ischemia. After 30 min of ischemia, 3 hours of reperfusion followed, after the tightened PE 50 was loosened. After the ischemia-reperfusion, the PE 50 was tightened again to induce ischemia, and then 2 ml of 1% Evans blue dye solution was infused intravenously to circulate whole body. Then the heart was isolated, cut into the width of 2-3 mm after the right atrium and right ventricle of the heart were removed. Then the stained (LV-AAR) and unstained area (AAR) of cross sectioned tissue was measured by using image analysis system (Quantity One 4.2, Bio-Rad, USA) to calculate the area at risk (AAR/LV, %). Then, the tissue was stained with 1% TTC (2,3,5-triphenyltetrazolium chloride, Sigma, USA) at 37° C. for 15 mins, fixed with 10% formalin solution. The infarcted area (IA/LV, %) was determined by measuring necrotic white area (IA) and total left ventricle area (LV). The ratio of IA to AAR of test samples and control group was compared to test efficacy.
The inventive starch, total dietary fiber, and representative components of the fiber mixed with food were administered orally, and the size of infarcted area was measured. To determine the proper dose with safety and maximum efficacy at the same time, the minimum dose calculated from the result obtained in Experimental Example 1 was set as a starting point, and the dose was increased according to two-fold increasing method, i.e., 100, 200 and 400 mg/kg.
Three days before the induction of ischemia, 400 mg/kg/day of HY6228 or inventive starch, or 10 mg/kg/day of inventive total dietary fiber, or 10 mg/kg/day of its components, such as arabinoxylan, beta-glucan, arabinose and xylose, was fed with 20 g of food with free access. After induction of myocardial infarction with 3 hours of reperfusion, the infarcted area was measured, the value of IA (% AAR) was calculated, and then efficacy of the inventive starch and total dietary fiber was compared with each other.

[2] = tested on: vascular dementia-induced rat model; assay: Vascular dementia-induced rat model (BCCAO), water-maze test; type: in vivo; conditions: 50 mg/kg fed for 1 week, FIG. 8b, 8c
Procedure: The therapeutic efficacy of inventive starch and total dietary fiber of the present invention on vascular dementia was measured in vascular dementia-induced rat model, using experiment rats prepared in Reference Example 1, in accordance with the procedure disclosed in the literature (Cho K O et al., J. Neurosci. Res., 83, pp 285-291, 2006), with minor modification.
The SD rats prepared in Reference Example 1 were anesthetized by inhalation using enflurane (Choongwae Pharm. Corp., KOREA). Two common carotid arteries were exposed by surgery and tied with thread using BCCAO (bilateral common carotid artery occlusion) method to reduce the blood flow rate into brain for 4 weeks. And then water-maze test disclosed in Experimental Example 6 was performed for 5 days.
7 days after the two common carotid arteries were tied, the rats were started to be fed with HY6228 (200 mg/kg), inventive starch (SW; 200 mg/kg), TDF (50 mg/kg) and arabinoxlyan (50 mg/kg) therewith for 1 week, for which the mean escape latency was measured.

| Compound | viability at 250 µg/mL (SH-SY5Y cells) [%] | size of infarcted area reduced by [1] [%] | IA (% AAR) [1] [%] | cell viability (SH-SY5Y cells; 500 microgram/ml) [%] | mean escape latency [2] | cell viability (SH-SY5Y cells; 20 microgram/ml) [%] |
| --- | --- | --- | --- | --- | --- | --- |
| O=C[C@@H](O)[C@H](O)[C@H](O)CO [arabinose] | 71.1 | 14.2 | 43.4 | – | – | – |
| O=C[C@H](O)[C@@H](O)[C@H](O)CO [xylose] | 72.1 | 16.8 | 42.1 | – | – | – |
| arabinoxylan | – | 16.4 | 42.3 | 75.5 | reduced the mean escape latency | – |
| beta-glucan | – | 13.4 | 43.8 | – | – | 70 |
